This passage reports inhibition results from ChEMBL document CHEMBL1122550.

This assay is described as follows: The ability to displace [3H]colchicine binding to rat brain tubulin protein. Details: concentration or dose not given beside the values. As to conditions: concentration not given here.

Usually inhibition stands for how much of the control response was suppressed. Compound `COc1c(COC(=O)C2CC(C)(C)N([O])C2(C)C)c2c(c(OC)c1OC)-c1ccc(OC)c(=O)cc1[C@@H](NC(C)=O)CC2` (stereo partly specified) registered an inhibition of 24%. Consider `COc1cc2c(c(OC)c1OC)-c1ccc(OC)c(=O)cc1[C@@H](NC(=O)[C@@H]1CC(C)(C)N([O])C1(C)C)CC2`, for which the inhibition was determined as 0%. As to `COc1cc2c(c(OC)c1OC)-c1ccc(OC)c(=O)cc1[C@@H](NC(=O)COC(=O)[C@H]1CC(C)(C)N([O])C1(C)C)CC2`, the inhibition turned out to be 65%.

In turn, `COc1cc2c(c(OC)c1OC)-c1ccc(OC)c(=O)cc1[C@@H](NC(=O)COC(=O)C1CC(C)(C)N([O])C1(C)C)CC2` (stereo partly specified) gave an inhibition of 60%. Consider `COc1cc2c(c(OC)c1OC)-c1ccc(OC)c(=O)cc1[C@@H](NC(=O)[C@H]1CC(C)(C)N([O])C1(C)C)CC2`, for which the inhibition turned out to be 0%. As for `COc1cc2c(c(OC)c1OC)-c1ccc(OC)c(=O)cc1[C@@H](NC(=O)COC(=O)[C@@H]1CC(C)(C)N([O])C1(C)C)CC2`, the figure is 72%.
